Legend:
[1] = target: T1, RNA-dependent DNA polymerase activity of HIV reverse transcriptase (Human immunodeficiency virus type 1 group M subtype B, UniProt P03366); test: RNA-dependent DNA polymerase activity assay of HIV reverse transcriptase; format: biochemical, HIV-1; settings: 10 μM inhibitor concentration, activity in presence / in absence of analog x 100
T1 construct: made in house
Description: In separate representative assays, mappicine analogs were tested for their ability to inhibit the RNA-dependent DNA polymerase activity of HIV reverse transcriptase and for their ability to inhibit the RNase H activity of HIV reverse transcriptase. The assay for RNA-dependent DNA polymerase activity is discussed in Borkow, G. et al., “Inhibition of the Ribonuclease H and DNA Polymerase Activities of HIV-1 Reverse Transcriptase by N-(4-tert-Butylbenzoyl)-2-hydroxy-1-naphthaldehyde Hydrazone,” Biochemistry 1997, 36, 3179-3185, a copy of which is attached hereto and the disclosure of which is incorporated herein by reference. Assays were carried out in the absence and in the presence of mappicine analogs (10 μM final concentration). The results are reported as % residual activity, which is the RNA-dependent DNA polymerase activity of the enzyme in the presence of the mappicine analog divided by the RNA-dependent activity of the enzyme in the absence of the mappicine analog, multiplied by 100.

[2] = target: T2, RNase H activity of HIV reverse transcriptase (Human immunodeficiency virus type 1 group M subtype B, UniProt P03366); test: Fluorescence (FRET)-based RNase H assay of HIV reverse transcriptase; format: biochemical, HIV-1; settings: 10 μM inhibitor concentration, activity in presence / in absence of analog x 100
T2 construct: 2.5 nM of the p51/p66 RT heterodimer in the assay; made in house

Compound	Residual activity (%) Polymerase [1]	Residual activity (%) RNase H [2]	Residual activity (%) Polymerase ([1]; 10 µM)	Residual activity (%) RNase H ([2]; 10 µM)
CCCCCCc1c2c(nc3ccc(C)cc13)-c1cc(C(=O)CCC3CCCCC3)c(C)c(=O)n1C2 [5 (8Cδκ)]	79%	95%	–	–
2-Acetoxy-12-ethyl-7-(1-hydroxypropyl)-8-methyl-1H-indolizino [1,2-b]quinolin-9-one [5 (AG 7M)]	99%	63%	–	–
COc1ccc2nc3c(c(-c4ccccc4)c2c1)Cn1c-3cc(C(O)C(C)(C)C)c(C)c1=O (centres unmarked) [5 (3Dβ)]	85%	70%	–	–
Cc1ccc2nc3c(c([Si](C)(C)C(C)(C)C)c2c1)Cn1c-3cc(C(=O)C(C)(C)C)c(C)c1=O [5 (4Cβκ)]	67%	65%	–	–
Cc1c(C(O)CCC2CCCCC2)cc2n(c1=O)Cc1c-2nc2ccc(F)cc2c1[Si](C)(C)C (centres unmarked) [5 (5Bδ)]	78%	103%	–	–
COc1ccc2nc3c(c([Si](C)(C)C)c2c1)Cn1c-3cc(C(=O)C(C)(C)C)c(C)c1=O [5 (5Dβκ)]	64%	86%	–	–
CCCCCCc1c2c(nc3ccccc13)-c1cc(C(O)CC)c(C)c(=O)n1C2 (centres unmarked) [5 (8Aα)]	42%	83%	–	–
COc1ccc2nc3c(c([Si](C)(C)C)c2c1)Cn1c-3cc(C(O)C(C)(C)C)c(C)c1=O (centres unmarked) [5 (5Dβ)]	76%	102%	–	–
CCC(O)c1cc2n(c(=O)c1C)Cc1c-2nc2ccc(OC)cc2c1[Si](C)(C)C(C)(C)C (centres unmarked) [5 (4Dα)]	77%	79%	–	–
CCC(O)c1cc2n(c(=O)c1C)Cc1c-2nc2ccccc2c1[Si](C)(C)C (centres unmarked) [5 (AG 1M)]	–	–	89%	73%
Cc1c(C(O)C(C)(C)C)cc2n(c1=O)Cc1c-2nc2ccc(F)cc2c1[Si](C)(C)C (centres unmarked) [5 (5Bβ)]	74%	102%	–	–
CCC(O)c1cc2n(c(=O)c1C)Cc1c-2nc2ccc(C)cc2c1[Si](C)(C)C(C)(C)C (centres unmarked) [5 (4Cα)]	94%	91%	–	–
CCCCCCc1c2c(nc3ccc(C)cc13)-c1cc(C(=O)C(C)(C)C)c(C)c(=O)n1C2 [5 (8Cβκ)]	66%	95%	–	–
CCCCCCc1c2c(nc3ccc(C)cc13)-c1cc(C(=O)Cc3ccccc3)c(C)c(=O)n1C2 [5 (8Cεκ)]	66%	86%	–	–
Cc1c(C(=O)C(C)(C)C)cc2n(c1=O)Cc1c-2nc2ccc(F)cc2c1[Si](C)(C)C(C)(C)C [5 (4Bβκ)]	82%	79%	–	–
CCCCCCc1c2c(nc3ccc(F)cc13)-c1cc(C(=O)CC)c(C)c(=O)n1C2 [5 (8Bακ)]	64%	103%	–	–
Cc1c(C(O)C(C)(C)C)cc2n(c1=O)Cc1c-2nc2ccccc2c1[Si](C)(C)C (centres unmarked) [5 (5Aβ)]	103%	77%	–	–
Cc1c(C(O)C(C)(C)C)cc2n(c1=O)Cc1c-2nc2ccccc2c1[Si](C)(C)C(C)(C)C (centres unmarked) [5 (4Aβ)]	71%	101%	–	–
CCC(O)c1cc2n(c(=O)c1C)Cc1c-2nc2ccc(C)cc2c1-c1ccccc1 (centres unmarked) [5 (3Cα)]	64%	96%	–	–
Cc1c(C(O)Cc2ccccc2)cc2n(c1=O)Cc1c-2nc2ccc(F)cc2c1[Si](C)(C)C(C)(C)C (centres unmarked) [5 (4Bε)]	61%	89%	–	–
COc1ccc2nc3c(c([Si](C)(C)C)c2c1)Cn1c-3cc(C(O)Cc2ccccc2)c(C)c1=O (centres unmarked) [5 (5Dε)]	48%	70%	–	–
COc1ccc2nc3c(c([Si](C)(C)C(C)(C)C)c2c1)Cn1c-3cc(C(=O)CCC2CCCCC2)c(C)c1=O [5 (4Dδκ)]	50%	83%	–	–

Compound	Residual activity (%) Polymerase [1]	Residual activity (%) RNase H [2]	Residual activity (%) Polymerase ([1]; 10 µM)	Residual activity (%) RNase H ([2]; 10 µM)
CCCCCCc1c2c(nc3ccc(F)cc13)-c1cc(C(O)Cc3ccccc3)c(C)c(=O)n1C2 (centres unmarked) [5 (8Bε)]	92%	84%	–	–
CCCCCCc1c2c(nc3ccc(F)cc13)-c1cc(C(=O)C(C)(C)C)c(C)c(=O)n1C2 [5 (8Bβκ)]	44%	81%	–	–
Cc1ccc2nc3c(c([Si](C)(C)C)c2c1)Cn1c-3cc(C(=O)CCC2CCCCC2)c(C)c1=O [5 (5Cδκ)]	59%	99%	–	–
CCCCCCc1c2c(nc3ccc(F)cc13)-c1cc(C(O)CC)c(C)c(=O)n1C2 (centres unmarked) [5 (8Bα)]	57%	80%	–	–
CCC(O)c1cc2n(c(=O)c1C)Cc1c-2nc2ccc(F)cc2c1[Si](C)(C)C(C)(C)C (centres unmarked) [5 (4Bα)]	98%	108%	–	–
CCC(O)c1cc2n(c(=O)c1C)Cc1c-2nc2ccc(OC)cc2c1-c1ccccc1 (centres unmarked) [5 (3Dα)]	69%	78%	–	–
CCCCCCc1c2c(nc3ccc(OC)cc13)-c1cc(C(O)C(C)(C)C)c(C)c(=O)n1C2 (centres unmarked) [5 (8Dβ)]	68%	67%	–	–
COc1ccc2nc3c(c(-c4ccccc4)c2c1)Cn1c-3cc(C(=O)Cc2ccccc2)c(C)c1=O [5 (3Dεκ)]	73%	88%	–	–
Cc1c(C(O)C(C)(C)C)cc2n(c1=O)Cc1c-2nc2ccc(F)cc2c1-c1ccccc1 (centres unmarked) [5 (3Bβ)]	78%	75%	–	–
Cc1c(C(=O)CCC2CCCCC2)cc2n(c1=O)Cc1c-2nc2ccc(F)cc2c1[Si](C)(C)C(C)(C)C [5 (4Bδκ)]	56%	96%	–	–
COc1ccc2nc3c(c(-c4ccccc4)c2c1)Cn1c-3cc(C(=O)CCC2CCCCC2)c(C)c1=O [5 (3Dδκ)]	81%	97%	–	–
CCC(O)c1cc2n(c(=O)c1C)Cc1c-2nc2ccc(OC)cc2c1[Si](C)(C)C (centres unmarked) [5 (5Dα)]	88%	78%	–	–
Cc1ccc2nc3c(c([Si](C)(C)C(C)(C)C)c2c1)Cn1c-3cc(C(O)CCC2CCCCC2)c(C)c1=O (centres unmarked) [5 (4Cδ)]	61%	109%	–	–
Cc1c(C(=O)C(C)(C)C)cc2n(c1=O)Cc1c-2nc2ccccc2c1[Si](C)(C)C(C)(C)C [5 (4Aβκ)]	79%	70%	–	–
CCCCCCc1c2c(nc3ccccc13)-c1cc(C(=O)Cc3ccccc3)c(C)c(=O)n1C2 [5 (8Aεκ)]	59%	92%	–	–
Cc1ccc2nc3c(c(-c4ccccc4)c2c1)Cn1c-3cc(C(O)CCC2CCCCC2)c(C)c1=O (centres unmarked) [5 (30δ)]	74%	93%	–	–
CCC(O)c1cc2n(c(=O)c1C)Cc1c-2nc2ccccc2c1[Si](C)(C)C(C)(C)C (centres unmarked) [5 (4Aα)]	67%	104%	–	–
CCCCCCc1c2c(nc3ccccc13)-c1cc(C(=O)CC)c(C)c(=O)n1C2 [5 (8Aακ)]	53%	77%	–	–
Cc1c(C(O)Cc2ccccc2)cc2n(c1=O)Cc1c-2nc2ccccc2c1-c1ccccc1 (centres unmarked) [5 (3Aε)]	34%	99%	–	–
Cc1c(C(O)CCC2CCCCC2)cc2n(c1=O)Cc1c-2nc2ccc(F)cc2c1[Si](C)(C)C(C)(C)C (centres unmarked) [5 (4Bδ)]	44%	90%	–	–
CCC(=O)c1cc2n(c(=O)c1C)Cc1c-2nc2ccc(OC)cc2c1-c1ccccc1 [5 (3Dακ)]	76%	104%	–	–
